Test results: patent US11318119B2 (Gilead Sciences, Inc., priority 2019, dated 2022)
Where two headings read alike, the source gives them in different places.

Legend:
in vitro = conditions: human, microsomes
Method: Liver Microsomal Stability Protocol
Test compounds and one control compound (verapamil) were tested in 3 different species in duplicate sets.
Reaction composition (in each incubation well) contains:
After plates were vortexed, they were centrifuged for 30 minutes to remove proteins. About 100 μL supernatant was removed to a new plate and diluted with 150 μL water. About 20 μL of the mixture was injected into LC/MS/MS system to monitor the compound's response. In vitro measured t1/2 was used to calculate Clint values.

[1] = system: single replication cycle recombinant virus containing the protease and reverse transcriptase coding regions of HIV-1 from a patient blood sample; format: cell-based; conditions: for mean fold change in susceptibility: mean over the resistant panel of Table 2
Description: Resistance testing was done by Monogram Biosciences using their proprietary PhenoSense HIV assay. This assay evaluates drug susceptibility by using a single replication cycle recombinant virus containing the protease (amino acids 1-99 plus p7/p1/p6 gag cleavage sites) and reverse transcriptase (amino acids 1-304) coding regions of HIV-1 from a patient blood sample.

recombinant HIV protease = biological target: T1, recombinant HIV protease (Human immunodeficiency virus type 1 group M subtype B, UniProt P04585); experiment: HIV Protease Enzyme Inhibition (PI) Activity, fluorogenic enzymatic assay; format: biochemical
T1 construct: recombinant HIV protease
Method: HIV Protease Enzyme Inhibition (PI) Activity
Inhibitor potency against HIV protease can be measured using an enzymatic assay with a fluorogenic readout. To a reaction buffer containing 100 mM ammonium acetate at pH 5.3, 100 mM NaCl, 1 mM EDTA, 1 mM DTT, 0.25 mg/mL BSA and 1% DMSO are added 10 nM of recombinant HIV protease (concentration based on protein monomer) and test compound at one of various concentrations. After a 10-minute pre-incubation, the enzymatic reaction is initiated by the addition of the fluorogenic substrate (2-aminobenzoyl)Thr-Ile-Nle-(p-nitro)Phe-Gln-Arg (Bachem; Product No. H-2992) (SEQ ID NO: 1) to a final concentration of 40 μM. The total volume of the assay solution is 100 μL. The reaction is measured over 10 minutes on a Tecan Infinite M1000 plate reader using an excitation wavelength of 320 nm and a detection wavelength of 420 nm. The slopes of the progress curves are the measure of reaction rates. Reaction rates are plotted as a function of inhibitor concentration, and the data are fit with a four-parameter logistic fit using Graphpad PRISM software to yield IC50 values.

[2] = system: HIV-1 (IIIB) in MT-4 cells; experiment: MT-4 HIV Assay (inhibition of HIV-1 replication, Cell Titer Glo readout); format: cell-based; conditions: Human immunodeficiency virus 1, MT4, 120 h, 5 days incubation
Method: (§1) Compounds were tested in a high-throughput 384-well assay format for their ability to inhibit the replication of HIV-1 (IIIB) in MT-4 cells. Compounds were serially diluted (1:3) in DMSO on 384-well polypropylene plates and further diluted 200-fold into complete RPMI media (10% FBS, 1% P/S) using the Biotek Micro Flow and Agilent ECHO acoustic dispenser. Each plate contained up to 8 test compounds, with negative (No Drug Control) and 5 uM AZT positive controls. MT-4 cells were pre-infected with 10 uL of either RPMI (mock-infected) or a fresh 1:250 dilution of an HIV-1 (IIIB) concentrated virus stock. Infected and uninfected MT-4 cells were further diluted in complete RPMI media and added to each plate using a Micro Flow dispenser. After 5 days incubation in a humidified and temperature controlled incubator (37° C.), Cell Titer Glo (Promega) was added to the assay plates to quantify the amount of luciferase.

[3] = system: HIV-1 (IIIB) in MT-4 cells; experiment: MT-4 HIV High Resolution Antiviral Assay; format: cell-based; conditions: EC95=(19)^1/hill coefficient x EC50
Method: as §1

[4] = Resistance mutations D30N L33F N88D L90M
[5] = Resistance mutations L10F L33F M46I I50V V82A N88D L89V
[6] = Resistance mutations L10F M46I I47V I50V I54V G73S I84V L90M
[7] = Resistance mutations L10F M46L I54V V82A 184V
[8] = Resistance mutations L10F V32I M46I I47V I50V I54L I84V
[9] = Resistance mutations L10F/L D30N I54V N88D L90M
[10] = Resistance mutations L10F/L D30N L33F I54L N88D L90M
[11] = Resistance mutations L10I I50 V82A L90M
[12] = Resistance mutations L10I L33F G48V I50L I54V/I V82A
[13] = Resistance mutations L10I L33F M46I I54V V82A I84V
[14] = Resistance mutations L10I L33F M46L G48V I54M V82A I84V L90M
[15] = Resistance mutations L10I L33F/L G48V G73S V82A
[16] = Resistance mutations L10I M46I G48V I50V V82A L90M
[17] = Resistance mutations L10I M46I I50V
[18] = Resistance mutations L10I M46L I54V V82A
[19] = Resistance mutations L10I M46L I54V V82F L90M
[20] = Resistance mutations L10I V32I L33F M46L I54L I84V L89V
[21] = Resistance mutations L10I V32I M46I I47V G48V I54M V82T L90M
[22] = Resistance mutations L10I V32I M46I I47V I50V I54L L90M
[23] = Resistance mutations L10V L33F I50L L90M
[24] = Resistance mutations L10V L33F M46I I54V V82A I84V L90M/L
[25] = Resistance mutations L10V/L M46I I50L V82A
[26] = Resistance mutations L33F M46I I50V L76V
[27] = Resistance mutations M46I L76V I84V
[28] = 10 nM recombinant HIV protease, pH 5.3, 40 μM fluorogenic substrate, read-out: HIV PI IC50

SMILES: COC(=O)N[C@H](C(=O)N[C@@H](Cc1ccccc1)[C@@H](O)CN(Cc1ccc(-c2ccccn2)cc1)NC(=O)[C@@H](NC(=O)OC)C(C)(C)C)C(C)(C)C [Atazanavir, methyl N-[(2S)-1-[2-[(2S,3S)-2-hydroxy-3-[[(2S)-2-(methoxycarbonylamino)-3,3-dimethylbutanoyl]amino]-4-phenylbutyl]-2-[(4-pyridin-2-ylphenyl)methyl]hydrazinyl]-3,3-dimethyl-1-oxobutan-2-yl]carbamate, reference compound]
- half-life at 1 μM (in vitro): 0.433 to 1.78 h
- Fold Change in EC50 [1, 4]: 4.68
- Fold Change in EC50 [1, 5]: 1.25
- Fold Change in EC50 [1, 6]: 19
- Fold Change in EC50 [1, 7]: 73
- Fold Change in EC50 [1, 8]: 5.44
- Fold Change in EC50 [1, 9]: 29
- Fold Change in EC50 [1, 10]: 15
- Fold Change in EC50 [1, 11]: 33
- Fold Change in EC50 [1, 12]: 70
- Fold Change in EC50 [1, 13]: 44
- Fold Change in EC50 [1, 14]: 70
- Fold Change in EC50 [1, 15]: >91
- Fold Change in EC50 [1, 16]: 39
- Fold Change in EC50 [1, 17]: 2.39
- Fold Change in EC50 [1, 18]: 9.73
- Fold Change in EC50 [1, 19]: 24
- Fold Change in EC50 [1, 20]: 89
- Fold Change in EC50 [1, 21]: 9.49
- Fold Change in EC50 [1, 22]: 25
- Fold Change in EC50 [1, 23]: >91
- Fold Change in EC50 [1, 24]: 9.69
- Fold Change in EC50 [1, 25]: 69
- Fold Change in EC50 [1, 26]: 1.84
- Fold Change in EC50 [1, 27]: 1.36
- mean fold change in susceptibility [1]: 17.7

SMILES: CC(C)(C[C@]1(c2ccc(-c3ccc(S(C)(=O)=O)cc3)cc2)NC(=N)N([C@H](COC(=O)NC2(C(F)F)CC2)c2ccc(Cl)c(-c3ncnn3C(F)F)c2)C1=O)C(F)(F)F [Compound 1, (S)-2-(4-chloro-3-(1-(difluoromethyl)-1H-1,2,4-triazol-5-yl)phenyl)-2-((R)-2-imino-4-(4′-(methylsulfonyl)-[1,1′-biphenyl]-4-yl)-5-oxo-4-(3,3,3-trifluoro-2,2-dimethylpropyl)imidazolidin-1-yl)ethyl (1-(difluoromethyl)cyclopropyl)carbamate]
- IC50 (recombinant HIV protease; [28]): 1.8 nM
- EC50 [2]: 13.2 nM
- EC95 [3]: 24.9 nM

SMILES: CC(C)(C[C@]1(c2ccc(-c3cccc(S(C)(=O)=O)c3)cc2)NC(=N)N([C@H](COC(=O)NC2(C(F)F)CC2)c2ccc(Cl)c(-c3ncnn3C(F)F)c2)C1=O)C(F)(F)F [Compound 2]
- IC50 (recombinant HIV protease; [28]): 2.9 nM
- EC50 [2]: 27.5 nM

SMILES: CC(C)(C[C@]1(c2ccc(-c3ccc(S(C)(=O)=O)c(F)c3)cc2)NC(=N)N([C@H](COC(=O)NC2(C(F)F)CC2)c2ccc(Cl)c(-c3ncnn3C(F)F)c2)C1=O)C(F)(F)F [Compound 3]
- IC50 (recombinant HIV protease; [28]): 2.9 nM
- EC50 [2]: 11.1 nM

SMILES: CC(C)(C[C@]1(c2ccc(-c3ccc(S(C)(=O)=O)cc3F)cc2)NC(=N)N([C@H](COC(=O)NC2(C(F)F)CC2)c2ccc(Cl)c(-c3ncnn3C(F)F)c2)C1=O)C(F)(F)F [Compound 4]
- IC50 (recombinant HIV protease; [28]): 2.4 nM
- EC50 [2]: 11.3 nM

SMILES: CC(C)(C[C@]1(c2ccc(-c3ccc(F)cc3)cc2)NC(=N)N([C@H](COC(=O)NC2(C(F)F)CC2)c2ccc(Cl)c(-c3ncnn3C(F)F)c2)C1=O)C(F)(F)F [Compound 5]
- IC50 (recombinant HIV protease; [28]): 4.5 nM
- EC50 [2]: 63.1 nM

SMILES: CC(C)(C[C@]1(c2ccc(-c3cccc(F)c3)cc2)NC(=N)N([C@H](COC(=O)NC2(C(F)F)CC2)c2ccc(Cl)c(-c3ncnn3C(F)F)c2)C1=O)C(F)(F)F [Compound 6]
- IC50 (recombinant HIV protease; [28]): 2.3 nM
- EC50 [2]: 50 nM

SMILES: CC(C)(C[C@]1(c2ccc(-c3cnn(C(F)F)c3)cc2)NC(=N)N([C@H](COC(=O)NC2(C(F)F)CC2)c2ccc(Cl)c(-c3ncnn3C(F)F)c2)C1=O)C(F)(F)F [Compound 7]
- IC50 (recombinant HIV protease; [28]): 1.8 nM
- EC50 [2]: 7.8 nM
- EC95 [3]: 17.8 nM
- Fold Change in EC50 [1, 4]: 3.62
- Fold Change in EC50 [1, 5]: 0.58
- Fold Change in EC50 [1, 6]: 3.51
- Fold Change in EC50 [1, 7]: 0.91
- Fold Change in EC50 [1, 8]: 1.08
- Fold Change in EC50 [1, 9]: 5.32
- Fold Change in EC50 [1, 10]: 2.57
- Fold Change in EC50 [1, 11]: 1.7
- Fold Change in EC50 [1, 12]: 0.72
- Fold Change in EC50 [1, 13]: 2.49
- Fold Change in EC50 [1, 14]: 2.9
- Fold Change in EC50 [1, 15]: 2.34
- Fold Change in EC50 [1, 16]: 9.22
- Fold Change in EC50 [1, 17]: 2.2
- Fold Change in EC50 [1, 18]: 5.84
- Fold Change in EC50 [1, 19]: 4.33
- Fold Change in EC50 [1, 20]: 0.82
- Fold Change in EC50 [1, 21]: 2.84
- Fold Change in EC50 [1, 22]: 3.92
- Fold Change in EC50 [1, 23]: 3.09
- Fold Change in EC50 [1, 24]: 2.6
- Fold Change in EC50 [1, 25]: 4.77
- Fold Change in EC50 [1, 26]: 1.39
- Fold Change in EC50 [1, 27]: 2.04
- mean fold change in susceptibility [1]: 2.4

SMILES: CC(C)(C[C@]1(c2ccc(-c3ccn(C(F)F)n3)cc2)NC(=N)N([C@H](COC(=O)NC2(C(F)F)CC2)c2ccc(Cl)c(-c3ncnn3C(F)F)c2)C1=O)C(F)(F)F [Compound 8, (S)-2-(4-chloro-3-(1-(difluoromethyl)-1H-1,2,4-triazol-5-yl)phenyl)-2-((R)-4-(4-(1-(difluoromethyl)-1H-pyrazol-3-yl)phenyl)-2-imino-5-oxo-4-(3,3,3-trifluoro-2,2-dimethylpropyl)imidazolidin-1-yl)ethyl (1-(difluoromethyl)cyclopropyl)carbamate]
- IC50 (recombinant HIV protease; [28]): 2 nM
- EC50 [2]: 8.4 nM

SMILES: CC(C)(C[C@]1(c2ccc(-c3cn(C(F)F)cn3)cc2)NC(=N)N([C@H](COC(=O)NC2(C(F)F)CC2)c2ccc(Cl)c(-c3ncnn3C(F)F)c2)C1=O)C(F)(F)F [Compound 9, (S)-2-(4-chloro-3-(1-(difluoromethyl)-1H-1,2,4-triazol-5-yl)phenyl)-2-((R)-4-(4-(1-(difluoromethyl)-1H-imidazol-4-yl)phenyl)-2-imino-5-oxo-4-(3,3,3-trifluoro-2,2-dimethylpropyl)imidazolidin-1-yl)ethyl (1-(difluoromethyl)cyclopropyl)carbamate]
- IC50 (recombinant HIV protease): 5.7 nM
- EC50 [2]: 26.3 nM
